pIC50: −log10 of the molar value. ≈ marks a conversion by molar mass, not a printed value.
How the values were obtained:
Staphylococcus aureus [1] = assay: Antibacterial activity against methicillin-resistant Staphylococcus aureus; assay type: functional
Staphylococcus aureus [2] = assay: Antibacterial activity against Staphylococcus aureus ATCC 25923 assessed as inhibition of bacterial growth by agar well diffusion method; assay type: functional
[3] = Inhibition of methicillin-resistant Staphylococcus aureus pyruvate kinase
Staphylococcus aureus [4] = assay: Antibacterial activity against Staphylococcus aureus assessed as inhibition of bacterial growth; assay type: functional
[5] = Cytotoxicity against human HKC-8 cells assessed as inhibition of cell growth; assay type: toxicity, cell-based
[6] = Cytotoxicity against human HepG2 cells assessed as inhibition of cell growth; assay type: toxicity, cell-based
[7] = Cytotoxicity against human MKN-28 cells assessed as inhibition of cell growth; assay type: toxicity, cell-based
Staphylococcus aureus [8] = assay: Antibacterial activity against methicillin-resistant Staphylococcus aureus 4N216 infected in mouse assessed as endurance rate at 20 mg/kg, iv relative to control; assay type: functional
Staphylococcus aureus [9] = assay: Antibacterial activity against methicillin-resistant Staphylococcus aureus 12 assessed as inhibition of bacterial growth; assay type: functional
Staphylococcus aureus [10] = assay: Antibacterial activity against methicillin-resistant Staphylococcus aureus 4 assessed as inhibition of bacterial growth; assay type: functional
Staphylococcus aureus [11] = assay: Antibacterial activity against methicillin-resistant Staphylococcus aureus 9 assessed as inhibition of bacterial growth; assay type: functional
Staphylococcus aureus [12] = assay: Antibacterial activity against methicillin-resistant Staphylococcus aureus 11 assessed as inhibition of bacterial growth; assay type: functional
Staphylococcus aureus [13] = assay: Antibacterial activity against methicillin-resistant Staphylococcus aureus 8 assessed as inhibition of bacterial growth; assay type: functional
Staphylococcus aureus [14] = assay: Antibacterial activity against methicillin-resistant Staphylococcus aureus 6 assessed as inhibition of bacterial growth; assay type: functional
Staphylococcus aureus [15] = assay: Antibacterial activity against methicillin-resistant Staphylococcus aureus 3 assessed as inhibition of bacterial growth; assay type: functional
[16] = Cytotoxicity against human HeLa cells assessed as inhibition of cell growth; assay type: toxicity, cell-based
[17] = Cytotoxicity against human A549 cells assessed as inhibition of cell growth; assay type: toxicity, cell-based
[18] = Cytotoxicity against human PC-3 cells assessed as inhibition of cell growth; assay type: toxicity, cell-based

In the case of `N=C(N)N/N=C/c1cn(S(=O)(=O)c2ccccc2)c2ccc(-c3ccc(F)c(Cl)c3)cc12`, the MIC (Staphylococcus aureus [1]) was 3.13 µg/mL (≈ 6.66 µM).
Work on `N=C(N)N/N=C/c1cn(S(=O)(=O)c2ccccc2)c2ccc(-c3ccc(OC(F)(F)F)cc3)cc12` yielded an MIC (Staphylococcus aureus [1]) of 3.13 µg/mL (≈ 6.24 µM).
For `COc1ccc(C2C([N+](=O)[O-])C(c3ccccc3)NC23C(=O)N(Cc2ccccc2)c2ccccc23)cc1` (stereo not drawn), the MIC (Staphylococcus aureus [2]) was 5 µg/mL (≈ 9.89 µM).
In the case of `Clc1ccc2c(c1)[C@H]1OCO[C@H]1C(c1c[nH]c3ccc(Br)cc13)N2` (stereo partly drawn), the MIC (Staphylococcus aureus [1]) was 0.31 µg/mL (≈ 0.764 µM).
Molecule `Oc1ccc(C(c2c[nH]c3ccc(Br)cc23)c2c[nH]c3ccc(Br)cc23)cc1` has an MIC (Staphylococcus aureus [1]) of 1 µg/mL (≈ 2.02 µM).
Work on `Fc1ccc2c(-c3ccc4cc(Cl)ccc4n3)c[nH]c2c1` yielded an MIC (Staphylococcus aureus [1]) of 0.62 µg/mL (≈ 2.09 µM).
For `O=C(C1=N[C@H](c2c[nH]c3cc(Br)ccc23)CN1)c1c[nH]c2cc(O)ccc12`, the pIC50 [3] was 7.80.
`O=C(c1ccc(F)cc1)C1C(c2ccc(Br)cc2)CNC12C(=O)Nc1ccccc12` (stereo not drawn) gave an MIC (Staphylococcus aureus [4]) of 40 µg/mL (≈ 86 µM).
In the case of `S=C=NCCn1ccc2ccccc21`, the MIC (Staphylococcus aureus [1]) was 8 µg/mL (≈ 39.5 µM), the IC50 [5] was 2 µg/mL (≈ 9.89 µM) and the IC50 [6] was 2 µg/mL (≈ 9.89 µM). It also gave an IC50 [7] of 2 µg/mL (≈ 9.89 µM).
Work on `N=C(N)N/N=C/c1cn(S(=O)(=O)c2ccccc2)c2ccc(-c3cccc(OC(F)(F)F)c3)cc12` yielded an MIC (Staphylococcus aureus [1]) of 3.13 µg/mL (≈ 6.24 µM).
`Clc1ccc(-n2nc(C3CCNCC3)cc2/C=C/c2c[nH]c3ccc(Cl)cc23)cc1` gave an MIC (Staphylococcus aureus [1]) of 1 µg/mL (≈ 2.29 µM).
With `Brc1ccc2[nH]cc(C3Nc4ccc(I)cc4[C@H]4OCO[C@@H]34)c2c1` (stereo partly drawn) the MIC (Staphylococcus aureus [1]) was 0.31 µg/mL (≈ 0.624 µM).
For `Clc1ccc2nc(-c3c[nH]c4ccc(Br)cc34)ccc2c1`, the MIC (Staphylococcus aureus [1]) was 0.62 µg/mL (≈ 1.73 µM).
With `Cl.OC(CNCCc1c[nH]c2cc(F)ccc12)Cn1c2ccc(Cl)cc2c2cc(Cl)ccc21` (stereo not drawn) the Activity (Staphylococcus aureus [8]) was 75%.
Work on `COc1ccc(-c2occ3ccc4c(c(Br)cn4C(C)(C)C)c23)cc1` yielded an MIC (Staphylococcus aureus [1]) of 1.4 µg/mL (≈ 3.51 µM).
In the case of `Cc1ccc(C(=O)CC2C[C@H](n3c(-c4cc5ccccc5n4S(=O)(=O)c4ccc(C)cc4)c(CC(=O)OCc4ccccc4)c4ccccc43)O[C@@H]2COC(=O)c2ccc(C)cc2)cc1` (stereo partly drawn), the MIC (Staphylococcus aureus [9]) was 3 µg/mL (≈ 3.39 µM), the MIC (Staphylococcus aureus [10]) was 3 µg/mL (≈ 3.39 µM) and the MIC (Staphylococcus aureus [11]) was 3 µg/mL (≈ 3.39 µM). The MIC (Staphylococcus aureus [12]) was 3 µg/mL (≈ 3.39 µM), the MIC (Staphylococcus aureus [13]) was 3 µg/mL (≈ 3.39 µM) and the MIC (Staphylococcus aureus [14]) was 3 µg/mL (≈ 3.39 µM). The MIC (Staphylococcus aureus [15]) was 3 µg/mL (≈ 3.39 µM).
With `O=C(O)c1cn(C2CC2)c2cc(N3CCNCC3)c(F)cc2c1=O` [CIPROFLOXACIN] the MIC (Staphylococcus aureus [4]) was 20 µg/mL (≈ 60.4 µM) and the MIC (Staphylococcus aureus [2]) was 0.3 µg/mL (≈ 0.905 µM).
Work on `Fc1ccc(Nc2nnc(Cc3c[nH]c4ccccc34)s2)c(F)c1` yielded an MIC (Staphylococcus aureus [1]) of 50 µg/mL (≈ 146 µM).
Work on `COc1ccc2nc3[nH]c4ccccc4c3c(-c3c[nH]c4ccccc34)c2c1` yielded an MIC (Staphylococcus aureus [1]) of 4 µg/mL (≈ 11 µM).
Work on `COC(=O)c1ccc(-c2ccc3c(c2)c(/C=N/NC(=N)N)cn3S(=O)(=O)c2ccccc2)cc1` yielded an MIC (Staphylococcus aureus [1]) of 3.13 µg/mL (≈ 6.58 µM).
`CCn1cc(Br)c2c3c(-c4ccc(Cl)cc4)onc3ccc21` showed an MIC (Staphylococcus aureus [1]) of 4.3 µg/mL (≈ 11.4 µM).
`CCOC(=O)CN(CCc1c(I)n([C@@H]2CC(OC(=O)c3ccc(C)cc3)[C@@H](COC(=O)c3ccc(C)cc3)O2)c2ccccc12)Cc1ccccc1` (stereo partly drawn) gave an MIC (Staphylococcus aureus [9]) of 6 µg/mL (≈ 7.36 µM), an MIC (Staphylococcus aureus [10]) of 6 µg/mL (≈ 7.36 µM) and an MIC (Staphylococcus aureus [11]) of 6 µg/mL (≈ 7.36 µM). For the same molecule, the MIC (Staphylococcus aureus [12]) was 6 µg/mL (≈ 7.36 µM), the MIC (Staphylococcus aureus [13]) was 6 µg/mL (≈ 7.36 µM) and the MIC (Staphylococcus aureus [14]) was 6 µg/mL (≈ 7.36 µM). It also gave an MIC (Staphylococcus aureus [15]) of 6 µg/mL (≈ 7.36 µM).
In the case of `O=[N+]([O-])c1ccc(C(c2c[nH]c3ccc(Br)cc23)c2c[nH]c3ccc(Br)cc23)cc1`, the MIC (Staphylococcus aureus [1]) was 1 µg/mL (≈ 1.9 µM), the pIC50 [16] was 5.57 and the pIC50 [17] was 5.35. It also gave a pIC50 [18] of 5.41.
Molecule `Clc1ccc2nc(-c3c[nH]c4ccc(Cl)cc34)ccc2c1` has an MIC (Staphylococcus aureus [1]) of 0.62 µg/mL (≈ 1.98 µM).
In the case of `CC1(C)S[C@@H]2[C@H](NC(=O)[C@H](N)c3ccccc3)C(=O)N2[C@H]1C(=O)OCOC(=O)[C@@H]1N2C(=O)C[C@H]2S(=O)(=O)C1(C)C` [SULTAMICILLIN], the MIC (Staphylococcus aureus [1]) was 25 µg/mL (≈ 42 µM).
In the case of `CC[C@H]1OC(=O)[C@H](C)[C@@H](O[C@H]2C[C@@](C)(OC)[C@@H](O)[C@H](C)O2)[C@H](C)[C@@H](O[C@@H]2O[C@H](C)C[C@H](N(C)C)[C@H]2O)[C@](C)(O)C[C@@H](C)C(=O)[C@H](C)[C@@H](O)[C@]1(C)O` [ERYTHROMYCIN], the MIC (Staphylococcus aureus [1]) was 32 µg/mL (≈ 43.6 µM).
For `CCCn1cc(Br)c2c3c(-c4ccc(OC)cc4)occ3ccc21`, the MIC (Staphylococcus aureus [1]) was 1.4 µg/mL (≈ 3.64 µM).
In the case of `CCCNc1nnc(Cc2c[nH]c3ccccc23)s1`, the MIC (Staphylococcus aureus [1]) was 6.25 µg/mL (≈ 22.9 µM).
For `O=C1NC[C@@H](c2c[nH]c3cc(Br)ccc23)N[C@H]1c1c[nH]c2ccccc12`, the pIC50 [3] was 7.80.
